The species entered for test [1] is Homo sapiens. As to the kind of experiment: Selectivity ratio of Ki for alpha2-AR high binding site in human brain frontal cortex to Ki for I2IR high binding site in human brain frontal cortex.
Test [2] addresses T1, Alpha-2A adrenergic receptor (Homo sapiens, UniProt P08913).
T1 sequence (P08913 whole entry): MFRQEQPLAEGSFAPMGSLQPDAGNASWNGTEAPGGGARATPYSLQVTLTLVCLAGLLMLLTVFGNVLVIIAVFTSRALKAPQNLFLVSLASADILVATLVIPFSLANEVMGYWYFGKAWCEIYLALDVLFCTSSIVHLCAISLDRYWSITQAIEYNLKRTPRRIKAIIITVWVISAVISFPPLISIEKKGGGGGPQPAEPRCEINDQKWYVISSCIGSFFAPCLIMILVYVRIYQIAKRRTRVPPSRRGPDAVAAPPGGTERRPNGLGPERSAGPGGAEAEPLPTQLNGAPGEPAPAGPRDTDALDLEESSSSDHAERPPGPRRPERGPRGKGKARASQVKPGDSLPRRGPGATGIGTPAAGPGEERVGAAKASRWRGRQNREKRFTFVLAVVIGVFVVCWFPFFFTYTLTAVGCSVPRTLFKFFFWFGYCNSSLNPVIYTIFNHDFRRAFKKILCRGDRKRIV
The test is described as follows: biochemical.
Description: Displacement of [3H]RX821002 from alpha2-AR in human brain frontal cortex incubated for 30 mins by liquid scintillation spectrometry

For test [3], the species on record is Homo sapiens. The test is described as follows: Displacement of [3H]2-BFI from I2IR in human brain frontal cortex assessed as binding affinity at high affinity site incubated for 45 mins by liquid scintillation spectrometry relative to control. It is filed as tissue-based. Also on record: concentration or dose not given beside the values. Background: In a radioligand displacement assay an active substance lowers the binding of a labelled ligand.

Test [4] is described as follows: Displacement of [3H]2-BFI from I2IR in human brain frontal cortex assessed as binding affinity at high affinity site incubated for 45 mins by liquid scintillation spectrometry. It counts as tissue-based.
A short description of test [5]: Displacement of [3H]2-BFI from I2IR in human brain frontal cortex assessed as binding affinity at low affinity site incubated for 45 mins by liquid scintillation spectrometry. It is filed as tissue-based.
Test [6] is described as follows: Displacement of [3H]2-BFI from I2IR in human brain frontal cortex incubated for 45 mins by liquid scintillation spectrometry. It is filed as tissue-based.
The nature of test [7]: Displacement of [3H]2-BFI from I2IR in Sprague-Dawley rat brain cortex incubated for 45 mins by liquid scintillation spectrometry.
A short description of test [8]: Displacement of [3H]2-BFI from I2IR in Swiss mouse brain cortex incubated for 45 mins by liquid scintillation spectrometry.
The nature of test [9]: Displacement of [3H]2-BFI from I2IR in Sprague-Dawley rat brain cortex assessed as binding affinity at high binding site incubated for 45 mins by liquid scintillation spectrometry.
Test [10] can be described thus: Displacement of [3H]2-BFI from I2IR in Sprague-Dawley rat brain cortex assessed as binding affinity at low binding site incubated for 45 mins by liquid scintillation spectrometry.
For test [11], the species on record is Rattus norvegicus. The test is described as follows: Displacement of [3H]2-BFI from I2IR in Sprague-Dawley rat brain cortex assessed as binding affinity at high binding site incubated for 45 mins by liquid scintillation spectrometry relative to control.
Test [12] in a line: Displacement of [3H]2-BFI from I2IR in Wistar rat brain cortex incubated for 90 mins by radioligand binding assay.
The species entered for test [13] is Homo sapiens. As to the kind of experiment: Selectivity index, […] for alpha2-AR human brain frontal cortex […] in human brain frontal cortex.

A word on the Ki: it is a measure of affinity in units of concentration, obtained from inhibition or displacement. Broadly, the pKi is the negative decadic logarithm of the Ki, by convention in mol/L. On to `C(=C\c1ccccc1)/C1=NCCN1` [TRACIZOLINE], for which the Ratio Ki in [1] turned out to be 14100. The Ki in test [2] was 46.8 µM; in [4], 0.0033 µM. Further, in [3], the Activity was determined as 38%. Moreover, the pKi in test [4] is on record as 8.48; in [5], 6.48.

In the case of `CCOP(=O)(OCC)C1(c2ccccc2)N=CC2C(=O)N(c3ccccc3Cl)C(=O)C21` (racemic), the Ratio Ki in test [1] is 24. Besides, the affinity in test [2] corresponds to a Ki of 0.708 µM. Besides, the negative logarithm of the Ki (pKi) came to 5.09 in test [6], 7.53 in [4] and 4.74 in [5]. Further, the Activity in test [3] came to 25%.

For `c1ccc2c(c1)OCC(C1=NCCN1)O2` (stereo not drawn) [IDAZOXAN], the negative logarithm of the Ki (pKi) in [7] is 7.17; in test [8], 5.68; in [4], 7.74.

Turning to `c1ccc2oc(C3=NCCN3)cc2c1`, the Ratio Ki in test [1] was 1700. For the same compound, the inhibition constant (Ki) in [2] is 0.229 µM; in test [4] it was 0.00013 µM. For the same compound, the Activity in [3] worked out at 21%. Besides, the pKi in [4] was found to be 9.87; in [5], 7.94.

Broadly, the inhibition is the change of the read-out against control, counted positive when it falls. `Cn1c(C2=NCCN2)cc2ccccc21`: the Ki in [9] turned out to be 0.0014 µM; in test [10], 0.239 µM. Further, the inhibition in test [11] turned out to be 58%. Moreover, in [3], the Activity was found to be 51%. The pKi in test [4] amounted to 6.89; in [5], 3.82.

In the case of `c1ccc2oc(-c3ncc[nH]3)cc2c1`, the Ratio Ki in test [1] came out at 7240. The inhibitory constant (Ki) in test [2] was 6.76 µM. In addition, the Activity in test [3] worked out at 49%. Further, the results for the pKi in test [4] and in test [5] were 9.03 and 5.25, respectively.

By IC50 is commonly meant the concentration that gives 50% inhibition. For the compound `c1ccc(-c2ncc3cc(-n4ccnc4)ccc3n2)cc1`, in test [1], the Ratio Ki is 117000. Further, the figures for the Ki in [2] and in test [12] were 2240 µM and 0.019 µM, respectively. The Activity in test [3] stood at 29%. Moreover, the negative logarithm of the Ki (pKi) worked out at 7.72 in test [4] and 5.45 in [5]. The compound also gave a half-maximal inhibitory concentration (IC50) in test [12] of 0.596 µM.

On to `CCOP(=O)(OCC)C1(c2ccccc2)N=CC2C(=O)N(CC)C(=O)C21` (racemic), for which, in test [13], the Ratio pKi was determined as 331. Further, the Ratio Ki in test [1] came to 1260. In test [2], this compound gave a Ki of 1.41 µM. The figures for the negative-log Ki (pKi) in test [6], in test [4] and in test [5] were 8.37, 8.95 and 5.86, respectively. The Activity in test [3] is 62%.

Turning to `CCOP(=O)(OCC)C1(c2ccccc2)N=CC2C(=O)N(C3Cc4ccccc4C3)C(=O)C21` (racemic), the Ratio pKi in test [13] stood at 2. The Ratio Ki in test [1] was 2690. In [2], this compound gave a Ki of 363 µM. For the same compound, the pKi in test [6] stood at 3.84; in test [4], 6.87; in test [5] it was 3.2. The Activity in test [3] is 22%.

These data come from ChEMBL document CHEMBL4354864, “Bicyclic α-Iminophosphonates as High Affinity Imidazoline I2 Receptor Ligands for Alzheimer's Disease” (J Med Chem, 2020).
